Experimental data as given in patent US20260209286A1, “SEA CUCUMBER-DERIVED HOLOTOCIN PEPTIDE AND USES THEREOF” (NATIONAL MARINE BIODIVERSITY INSTITUTE OF KOREA, priority 2022, published 2026).
Like-named read-outs stand apart in the source and are kept apart here. Where a SMILES comes first, the peptide text is derived from it. Bridges are numbered along the chain shown (N, C = ends). Where no end group is shown, it is not given here.

Assays:
[1] = tested on: kidney cell line 293T; assay: CCK-8 cytotoxicity assay in 293T cells; settings: 10, 1 and 0.1 μM, 24 and 72 hours
[2] = tested on: epidermal keratinocytes HaCaT; assay: CCK-8 cytotoxicity assay in HaCaT cells; settings: 10, 1 and 0.1 μM, 24 and 72 hours
[3] = tested on: Sox2; assay: RT-PCR of regeneration-related gene Sox2 in HaCaT skin cells; type: cell-based; settings: 1 μM, 24 hours
[4] = tested on: Oct4; assay: RT-PCR of regeneration-related gene Oct4 in HaCaT skin cells; type: cell-based; settings: 1 μM, 24 hours
[5] = tested on: rat hypothalamic neurons; settings: cited from earlier work
[6] = tested on: epidermal keratinocytes HaCaT
[7] = tested on: kidney cell line 293T
[8] = tested on: kidney cell line 293T; assay: Size of stem cell spheroids formed in 293T cells; type: cell-based; settings: 10, 1 and 0.1 μM, cultured 10 days
Experimental: (§1) For the formation of spheroids, the cells prepared in Preparation Example 2 were cultured in Aggrewell 800 plates pretreated with an anti-Adherence rinsing solution, using a DMEM-F12 medium containing a stem cell-permissive medium supplemented with 20 ng/ml EGF, 20 ng/ml basic fibroblast growth factor (bFGf), and B27 Serum-free Supplement (50×; Invitrogen).
(§2) After the culture period, the spheroids were observed under a microscope, and approximately 25 spheroids were measured.
(§3) Specifically, FIGS. 5 to 8 show the results of adding the peptides prepared in Preparation Example 1 to the renal cell line 293T, and FIGS. 9 to 12 show the results of adding the same peptides to the epidermal keratinocytes HaCaT.

[9] = tested on: epidermal keratinocytes HaCaT; assay: Size of stem cell spheroids formed in HaCaT cells; type: cell-based; settings: 10, 1 and 0.1 μM, cultured 10 days
Experimental: as §1, §2, §3

## CC[C@H](C)[C@@H]1NC(=O)[C@H](Cc2ccccc2)NC(=O)[C@@H](N)CSSC[C@@H](C(=O)N2CCC[C@H]2C(=O)N[C@@H](CC(C)C)C(=O)NCC(N)=O)NC(=O)[C@H](CC(N)=O)NC(=O)[C@H]([C@@H](C)O)NC1=O [Holotocin(HLT), Holotocin] (H-CFITNCPLG-NH2; disulfide 1-6)
[1]
  cytotoxicity / cell viability: no changes in cytotoxicity or cell proliferation
[2]
  cytotoxicity / cell viability: no changes in cytotoxicity or cell proliferation

## CC[C@H](C)[C@@H]1NC(=O)[C@H](Cc2ccc(O)cc2)NC(=O)[C@@H](N)CSSC[C@@H](C(=O)N2CCC[C@H]2C(=O)N[C@@H](CC(C)C)C(=O)NCC(N)=O)NC(=O)[C@H](CC(N)=O)NC(=O)[C@H](CCC(N)=O)NC1=O [Oxytocin(OXT), Oxytocin]
[3]; HaCaT, RT-PCR
  expression of stemness-related gene Sox2: induces the expression
[4]; HaCaT, RT-PCR
  expression of stemness-related gene Oct4: induces the expression
[1]
  cytotoxicity / cell viability: no changes in cytotoxicity or cell proliferation
[5]; rat hypothalamic neurons, Salehi et al. 2021
  size of spheroids: increase the size of spheroids
[2]
  cytotoxicity / cell viability: no changes in cytotoxicity or cell proliferation

## NC(=O)CC[C@@H]1NC(=O)[C@H](Cc2ccccc2)NC(=O)[C@H](Cc2ccc(O)cc2)NC(=O)[C@@H](N)CSSC[C@@H](C(=O)N2CCC[C@H]2C(=O)N[C@@H](CCCN=C(N)N)C(=O)NCC(N)=O)NC(=O)[C@H](CC(N)=O)NC1=O [Vasopressin(AVP), Vasopressin]
[3]
  expression of stemness-related gene Sox2: induces the expression
[6]
  cytotoxicity / cell viability: no changes in cytotoxicity or cell proliferation
[7]
  cytotoxicity / cell viability: no changes in cytotoxicity or cell proliferation
[4]
  expression of stemness-related gene Oct4: induces the expression
[5]
  size of spheroids: increase the size of spheroids

## Octopressin (CFWTNCPVG-NH2; ends and bridges not checked; listed as Octopus vulgaris) [Octopressin(OTP)]
[8]
  change in the size of the stem cell spheroids (in words): little or no change in the size
[9]
  change in the size of the stem cell spheroids (in words): little or no change in the size
[1]
  cytotoxicity / cell viability: no changes in cytotoxicity or cell proliferation
[2]
  cytotoxicity / cell viability: no changes in cytotoxicity or cell proliferation
